Patent publication US6740772B1, “Prostaglandin derivatives” (Taisho Pharmaceutical Co., Ltd., priority 1999, dated 2004)

Tested on: EBTr [NBL-4] cells derived from bovine embryonic trachea
Experiment: cAMP production promoting action in EBTr [NBL-4] cell derived from bovine embryonic trachea
Format: cell-based
Conditions: for EC50: concentration producing 50% of the cAMP amount obtained with 10 μM PGD2 (=100%), 15 minutes with test compound and 0.5 mM 3-isobutyl-1-methylxanthine; for cAMP production promoting action (in words): conclusion drawn from Table 1
Method: Experiment [Measurement of cAMP production promoting action in EBTr [NBL-4] cell derived from bovine embryonic trachea]
According to the method of Ito et al. in Br. J. Pharmacol., vol. 99, page 13-14 (1990), the following test was carried out.
That is, EBTr [NBL-4] cells derived from bovine embryonic trachea (produced by Dainippon Pharmaceutical Co.) were inoculated on 24-well plates (6×10^4 cells/well) (manufactured by Sumitomo Bakelite Co.), and cultured on a growth medium (MEM Earle's medium including 10% calf serum, 2mM glutamine and non-essential amino acids) for 48 hours, followed by cultivation on 0.5 ml of a growth medium including the test compound and 0.5 mM 3-isobutyl-1-methylxanthine) for 15 minutes. After the completion of the reaction, the cells were washed with a phosphate buffer (not including Ca++ and Mg++), 0.6 ml of 65% aqueous ethanol solution was added, followed by allowing to stand at 4° C. for an hour, and the resulting cAMP was extracted. After evaporation of the solvent by a centrifugal evaporator, the amount of cAMP was measured by using a cAMP EIA System (manufactured by Amersham Co.).
When an amount of cAMP obtained by adding PGD2 in a concentration of 10 μM was regarded as 100%, a concentration required to produce 50% of the amount of cAMP was measured as EC50.
(note) Compounds 19 and 97 are those prepared in the examples as described above. The test compounds were each used as a form of an ethanol solution, and compared with a vehicle-treated group as a control.

| Compound | EC50 | cAMP production promoting action (in words) |
| --- | --- | --- |
| O=C(O)COCCSCC1C(Cl)CC(O)C1C#CC(O)C1CCCCC1 (stereo not drawn) [Compound 97, 3-Oxa-6-thia-9β-chloro-13,14-didehydro-16,17,18,19,20-pentanor-15-cyclohexyl-9-deoxy-PGF1α] | 5.13 nM | strong cAMP production promoting action |
| CCCCC[C@H](O)/C=C/[C@H]1C(=O)C[C@H](O)[C@@H]1C/C=C\CCCC(=O)O [PGD2, reference compound] | 124 nM | – |
| O=C(O)CCCCSCC1C(Cl)CC(O)C1C#CC(O)C1CCCCC1 (stereo not drawn) [Compound 19, 6-Thia-9-deoxy-9β-chloro-16,17,18,19,20-pentanor-15-cyclohexyl-13,14-didehydro-PGF1α] | 17.3 nM | strong cAMP production promoting action |
